According to patent EP0565593B1, “REDUCING PESTICIDAL INTERACTIONS IN CROPS” (priority 1990, dated 1992):
Values joined by “and” are separate entries in the source; they are usually repeats but may differ in a detail not shown here. Equal entries are not always repeated. Where two headings read alike, the source gives them in different places.

Experiments:
[1] = system: Giant foxtail (GIFT); test: Greenhouse test Procedure VII (same examples); format: in vivo; conditions: Antidote + Biocide No. 1 in furrow
Excerpt: This procedure describes interaction among herbicide, biocide and antidote when the biocide and the antidote is applied to a soil furrow containing crop seed before emergence of the crop and the herbicide is applied after emergence of the crop and weeds. The soil and planting depth was described in Procedure IV. The containers for comparison, the biocide and antidote applications to soil furrows were described in Procedure VI. In this procedure, the seed beds of the first, second, third and fourth containers are covered by soil layers not treated with herbicide. The containers were then placed on a bench in a greenhouse and subirrigated as required for the duration of the test. The herbicide, dispersed or dissolved in water containing 0.25% v/v nonionic surfactant (X-77) was applied by a track sprayer (187 L/ha) to the emerged plants of the second, third and fourth containers about five days after planting. All treatments were run in duplicate. Plant response was observed according to Procedure IV. Variations in this procedure will be noted in the examples.
In these tests (according to Procedure VII) the safeners in solution with acetone were applied in furrow to the soil, followed by COUNTER 15G granules at 227 g/305 m (8 oz./1000'). Applications were made in alternate rows in two separate 13.7 cm x 27.7 cm pans containing Dupo silt loam. Pans were seeded 1.3 cm deep, placed on benches in a greenhouse and subirrigated. BEACON was formulated in water with 0.25% v/v X-77 surfactant and applied by track sprayer at a rate of 187 L/Ha (20 gal/A). Weed species in this test were giant foxtail, shattercane and velvetleaf. The herbicide was applied five (5) days after PPI initiation and observation of test result (shown in Table 47) made eight (8) days later.
In Table 47 COUNTER 15G is abbreviated as "C" and the antidotes as "A" in the column headings which indicate the "C + A" ratios used in the tests. Control and COUNTER treatments are average of four (4) replications and COUNTER + Antidote treatments, average of 2 reps.

[2] = system: Velvetleaf (VELE); format: in vivo, Abutilon theophrasti
[3] = system: Giant foxtail (GIFT); test: Greenhouse test Procedure VI (Examples 59-61; Tables 58-60); format: in vivo
Excerpt: This procedure describes interaction among herbicide, biocide and antidote when the herbicide is incorporated in a soil cover layer and the biocide and the antidote are applied in a soil furrow containing crop seed before emergence of the crop. The soil and seeding depth were described in Procedure IV. A first container was designated as an untreated control, a second container was designated as a herbicide control, a third container was designated as a herbicide + biocide control and a fourth container as a herbicide + biocide + antidote test container. The biocide and antidote were formulated as granules. The biocide was applied to the soil furrows of the third and fourth containers at an application rate of 1.1 mg of active compound per cm of row. The antidote was applied to the soil furrow of the fourth container at an application rate of 0.37 mg of active compound per cm of row. A measured amount of the herbicide dispersed or dissolved in acetone was applied to a measured quantity of soil. The quantity of soil treated with the herbicide was thoroughly mixed to incorporate the herbicide. Samples of this soil were used to cover the seed beds of the second, third and fourth containers. For each test series, the seed bed of the first container was likewise covered by a soil layer not treated with herbicide and without biocide or antidote in the soil furrow.
The containers were then placed on a bench in a greenhouse. Watering was by subirrigation plus overhead irrigation after the plants emerged. All treatments were run in duplicate. Plant response was observed according to Procedure IV. Variations in this procedure will be noted in the examples.
The procedure used in this example involved the PPI application of biocide and safener as described in general Procedure VI above. The "primary" herbicide in this test was MON-12000 (Herbi-cide No. 1) in admixture with other herbicides designated as "co-herbicides", which included LASSO® (co-herbicide B); DUAL® (C); acetochlor (A); EPTAM® (D); butylate (E) and PURSUIT® (K).
The in-furrow treatments with blended COUNTER 15G and antidote mixtures was as described in above examples. MON-12000 and the co-herbicides were formulated in acetone and applied as tank mixtures, incorporated into Dupo silt loam soil with a rotary drum mixer. Subsamples were used to cover seeded and in-furrow treated 10.2 cm pots. Pots were placed on greenhouse benches and subirrigated. Plant responses were observed thirteen days after PPI initiation. Test results (average of two replications) are shown in Table 58, wherein giant foxtail (GIFT) was used in place of shattercane.
This test was conducted in the same manner used in Example 59. All biocide and antidote components were the same and in these tests XRD-498 (Herbicide No. 21) was the prime herbicide. Co-herbicides are shown in Table 59 together with test data.
In one other test conducted as described in the preceding examples in this series of tests, the herbicide PURSUIT® was used as the primary herbicide (in the context of this invention) together with the same insecticide and safeners as above and the co-herbicides shown in Table 60, together with test results.

Question: How did the “% Inhibition GIFT” value ([1]; Herbicide No. 1 0.14 Kg/Ha POE, 8 days after POE) turn out when `COC(=O)COC(c1ccccc1)c1ccccc1` [compound 12] was run?
Answer: 0%

Question: And the “% Inhibition GIFT” value ([1]; Herbicide No. 4 0.17 Kg/Ha POE, 8 days after POE)?
Answer: 0%

Question: And the “% Inhibition GIFT” value ([1]; Herbicide No. 5 0.07 Kg/Ha POE, 8 days after POE)?
Answer: 0%

Question: And the “% Inhibition GIFT” value ([1]; Herbicide No. 6 0.01 Kg/Ha POE)?
Answer: 50%

Question: And the “% Inhibition GIFT” value ([1]; Herbicide No. 7 0.56 Kg/Ha POE, 8 days after POE)?
Answer: 85%

Question: And the “% Inhibition GIFT” value ([1]; Herbicide No. 9 0.009 Kg/Ha POE)?
Answer: 10%

Question: What about the “% Inhibition GIFT” value ([1]; Herbicide No. 10 0.002 Kg/Ha POE, 8 days after POE) of the same compound?
Answer: 0%

Question: What about the “% Inhibition GIFT” value ([1]; Herbicide No. 15 0.0044 Kg/Ha POE, 8 days after POE) of the same compound?
Answer: 0%

Question: And the “% Inhibition GIFT” value ([1]; Herbicide No. 16 0.01 Kg/Ha POE)?
Answer: 20%

Question: And the “% Inhibition GIFT” value ([1]; Herbicide No. 18 0.0044 Kg/Ha POE)?
Answer: 60%

Question: What about the “% Inhibition GIFT” value ([1]; Herbicide No. 19 0.28 Kg/Ha POE) of the same compound?
Answer: 35%

Question: What about the “% Inhibition GIFT” value ([1]; Herbicide No. 21 0.14 Kg/Ha POE) of the same compound?
Answer: 25%

Question: What about the “% Inhibition GIFT” value ([1]; Herbicide No. 23 0.0006 Kg/Ha POE) of the same compound?
Answer: 25%

Question: And the “% Inhibition 5 DAP VELE” value ([2]; Antidote 4.48 + Biocide No. 1 8.96 Kg/Ha PPI, Herb. No. 8 0.07, 5 DAP, before herbicide application)?
Answer: 25%

Question: What about the “% Inhibition 13 DAP VELE” value ([2]; Antidote 4.48 + Biocide No. 1 8.96 Kg/Ha PPI, Herb. No. 8 0.07 POE, 13 DAP) of the same compound?
Answer: 90%

Question: And the “% Inhibition VELE” value ([2]; Antidote 4.48 + Biocide No. 1 8.96 Kg/Ha PPI, Herbicide No. 7 0.28 POE, 13 days after planting)?
Answer: 65%

Question: What about the “% Inhibition 5 DAP VELE” value ([2]; Herb. […], 5 DAP, before herbicide application) of the same compound?
Answer: 0%

Question: What about the “% Inhibition 13 DAP VELE” value ([2]; Herb. […], 13 DAP, after herbicide application) of the same compound?
Answer: 90%

Question: What about the “% Inhibition VELE” value ([2]; Table 14: Herbicide No. 7 (ACCENT) 0.84 Kg/Ha POE + Biocide No. 2 8.96 Kg/Ha PPI + antidote 4.48 Kg/Ha PPI, 13 days after planting, 8 days after herbicide) of the same compound?
Answer: 70%

Question: What about the “% Inhibition VELE” value ([2]; […], 13 days after planting, 8 days after herbicide) of the same compound?
Answer: 75%

Question: What about the “% Inhibition VELE” value ([2]; […], observed 8 days later (Table 32)) of the same compound?
Answer: 85%

Question: And the “% Inhibition VELE” value ([2]; […], observed 8 days later (Table 33))?
Answer: 75%

Question: And the “% Inhibition VELE” value ([2]; […], observed 10 days after herbicide application)?
Answer: 90%

Question: And the “% Inhibition 5 DAP VELE” value ([2]; in vivo)?
Answer: 20%

Question: What about the “% Inhibition 13 DAP VELE” value ([2]; in vivo) of the same compound?
Answer: 85%

Question: And the “% Inhibition VELE” value ([2]; in vivo)?
Answer: 70% and 65% and 85% and 75% and 90% and 80%

Question: What about the “% Inhibition GIFT” value ([3]; Antidote + Biocide No. 1 in furrow, Herbicide No. 6 0.14 Kg/Ha PPI) of the same compound?
Answer: 60%

Question: What about the “% Inhibition GIFT” value ([3]; Antidote + Biocide No. 1 in furrow, Herbicide No. 11 0.0044 Kg/Ha PPI) of the same compound?
Answer: 0%

Question: And the “% Inhibition GIFT” value ([3]; Antidote + Biocide No. 1 in furrow, Herbicide No. 12 0.0044 Kg/Ha PPI)?
Answer: 0%

Question: What about the “% Inhibition GIFT” value ([3]; Antidote + Biocide No. 1 in furrow, Herbicide No. 13 0.0011 Kg/Ha PPI) of the same compound?
Answer: 0%

Question: What about the “% Inhibition GIFT” value ([3]; Antidote + Biocide No. 1 in furrow, Herbicide No. 13 0.0022 Kg/Ha PPI) of the same compound?
Answer: 25%

Question: And the “% Inhibition GIFT” value ([3]; Antidote + Biocide No. 1 in furrow, Herbicide No. 14 0.07 Kg/Ha PPI)?
Answer: 0%

Question: What about the “% Inhibition GIFT” value ([3]; Antidote + Biocide No. 1 in furrow, Herbicide No. 16 0.07 Kg/Ha PPI, 13 days) of the same compound?
Answer: 35%

Question: What about the “% Inhibition GIFT” value ([3]; Antidote + Biocide No. 1 in furrow, Herbicide No. 17 0.14 Kg/Ha PPI, 13 days) of the same compound?
Answer: 80%

Question: And the “% Inhibition GIFT” value ([3]; Antidote + Biocide No. 1 in furrow, Herbicide No. 18 0.04 Kg/Ha PPI, 13 days)?
Answer: 50%

Question: And the “% Inhibition GIFT” value ([3]; Antidote + Biocide No. 1 in furrow, Herbicide No. 20 1.12 Kg/Ha PPI, 13 days)?
Answer: 25%

Question: What about the “% Inhibition GIFT” value ([3]; Antidote + Biocide No. 1 in furrow, Herbicide No. 22 0.28 Kg/Ha PPI, 13 days) of the same compound?
Answer: 20%

Question: What about the “% Inhibition GIFT” value ([3]; Antidote + Biocide No. 1 in furrow, Herbicide No. 24 0.14 Kg/Ha PPI, 13 days) of the same compound?
Answer: 20%

Question: And the “% Inhibition GIFT” value ([3]; Antidote + Biocide No. 1 in furrow, Herbicide No. 25 0.14 Kg/Ha PPI, 13 days)?
Answer: 25%

Question: And the “% Inhibition GIFT” value ([3]; Antidote + Biocide No. 1 in furrow, Herbicide No. 26 2.24 Kg/Ha PPI, 13 days)?
Answer: 0%

Question: What about the “% Inhibition GIFT” value ([3]; Antidote + Biocide No. 1 in furrow, Herbicide No. 28 0.04 Kg/Ha PPI, 13 days) of the same compound?
Answer: 35%

Question: What about the “% Inhibition GIFT” value ([3]; Herbicide No. 12 0.0044 Kg/Ha PPI + Biocide No. 1 in furrow, no antidote) of the same compound?
Answer: 0%

Question: And the “% Inhibition GIFT” value ([3]; Herbicide No. 12 0.0044 Kg/Ha PPI alone, average of two reps)?
Answer: 0%
